# Test results reported in publication PMC5218480 (PLoS ONE, 2017).
# System: MV-4-11 cells
# Experiment: Gene expression microarray analysis (Affymetrix PrimeView) and GSEA
# Format: cell-based, human
# Parameters: RFU PODN (11730768_x_at) / Fold change /veh PODN (11730768_x_at) / RFU LINC00158 (11744669_a_at) / Fold change /veh LINC00158 (11744669_a_at) / RFU DUSP10 (11751237_a_at) / Fold change /veh DUSP10 (11751237_a_at) / RFU ID3 (11757404_x_at) / Fold change /veh ID3 (11757404_x_at) / RFU PLEKHG5 (11737974_s_at) / Fold change /veh PLEKHG5 (11737974_s_at) / RFU LRRC4B (11730491_at) / Fold change /veh LRRC4B (11730491_at) / RFU GIMAP4 (11747438_a_at) / Fold change /veh GIMAP4 (11747438_a_at) / RFU KRT8 (11758183_x_at) / Fold change /veh KRT8 (11758183_x_at) / RFU CNN1 (11734310_a_at) / Fold change /veh CNN1 (11734310_a_at) / RFU VPS37D (11726825_at) / Fold change /veh VPS37D (11726825_at) / RFU C10orf10 (11716522_x_at) / Fold change /veh C10orf10 (11716522_x_at) / RFU KIR2DL2 /// KIR2DL4 /// KIR2DL5A /// KIR2DL5B /// KIR2DS1 /// KIR2DS2 /// KIR2DS3 /// KIR2DS4 /// KIR3DL3 /// KIR3DL3 /// KIR3DS1 (11738374_at) / Fold change /veh KIR2DL2 /// KIR2DL4 /// KIR2DL5A /// KIR2DL5B /// KIR2DS1 /// KIR2DS2 /// KIR2DS3 /// KIR2DS4 /// KIR3DL3 /// KIR3DL3 /// KIR3DS1 (11738374_at) / RFU C1QL1 (11718748_at) / Fold change /veh C1QL1 (11718748_at) / RFU TMPRSS4 (11747572_a_at) / Fold change /veh TMPRSS4 (11747572_a_at) / RFU HAMP (11756126_x_at) / Fold change /veh HAMP (11756126_x_at) / RFU RNFT2 (11725882_a_at) / Fold change /veh RNFT2 (11725882_a_at) / RFU NR4A2 (11747474_a_at) / Fold change /veh NR4A2 (11747474_a_at) / RFU ABCC12 (11746883_a_at) / Fold change /veh ABCC12 (11746883_a_at) / RFU TMEM136 (11760407_x_at) / Fold change /veh TMEM136 (11760407_x_at) / RFU CLDN22 /// WWC2 (11732394_at) / Fold change /veh CLDN22 /// WWC2 (11732394_at) / RFU HLA-DPB1 (11760878_x_at) / Fold change /veh HLA-DPB1 (11760878_x_at) / RFU SPINT1 (11716480_a_at) / Fold change /veh SPINT1 (11716480_a_at) / RFU GAP43 (11754022_s_at) / Fold change /veh GAP43 (11754022_s_at) / RFU A4GNT (11735810_at) / Fold change /veh A4GNT (11735810_at) / RFU PRB3 (11715151_x_at) / Fold change /veh PRB3 (11715151_x_at) / RFU TUBB4B (11761932_at) / Fold change /veh TUBB4B (11761932_at) / RFU CAPN14 (11732068_a_at) / Fold change /veh CAPN14 (11732068_a_at) / RFU TMCC2 (11721928_a_at) / Fold change /veh TMCC2 (11721928_a_at) / RFU IRGQ (11745062_a_at) / Fold change /veh IRGQ (11745062_a_at) / RFU FAM174B (11720279_a_at) / Fold change /veh FAM174B (11720279_a_at) / RFU TMPRSS4 (11748680_a_at) / Fold change /veh TMPRSS4 (11748680_a_at) / RFU FAM212B (11763350_a_at) / Fold change /veh FAM212B (11763350_a_at) / RFU PLEKHG5 (11743358_a_at) / Fold change /veh PLEKHG5 (11743358_a_at) / RFU ZSCAN30 (11745921_a_at) / Fold change /veh ZSCAN30 (11745921_a_at) / RFU CMKLR1 (11741424_a_at) / Fold change /veh CMKLR1 (11741424_a_at) / RFU LOC101060620 /// MAPK8IP1 (11723275_at) / Fold change /veh LOC101060620 /// MAPK8IP1 (11723275_at) / RFU SPTSSB (11747773_x_at) / Fold change /veh SPTSSB (11747773_x_at) / RFU PRSS12 (11739890_at) / Fold change /veh PRSS12 (11739890_at) / RFU BIN1 (11741810_x_at) / Fold change /veh BIN1 (11741810_x_at) / RFU WNT11 (11732464_a_at) / Fold change /veh WNT11 (11732464_a_at) / RFU C10orf10 (11716521_a_at) / Fold change /veh C10orf10 (11716521_a_at) / RFU C5orf56 (11738089_at) / Fold change /veh C5orf56 (11738089_at) / RFU CYB561 (11721691_x_at) / Fold change /veh CYB561 (11721691_x_at) / RFU ANKRD19P (11752326_a_at) / Fold change /veh ANKRD19P (11752326_a_at) / RFU OR2T12 /// OR2T33 /// OR2T8 (11738714_s_at) / Fold change /veh OR2T12 /// OR2T33 /// OR2T8 (11738714_s_at) / RFU VCAN (11748164_a_at) / Fold change /veh VCAN (11748164_a_at) / RFU JSRP1 (11732532_at) / Fold change /veh JSRP1 (11732532_at) / RFU KRTAP10-11 (11738290_x_at) / Fold change /veh KRTAP10-11 (11738290_x_at) / RFU MYO3A (11730013_a_at) / Fold change /veh MYO3A (11730013_a_at) / RFU EBF3 (11725865_a_at) / Fold change /veh EBF3 (11725865_a_at) / RFU CAMK2N1 (11719241_x_at) / Fold change /veh CAMK2N1 (11719241_x_at) / RFU C5orf56 (11738088_a_at) / Fold change /veh C5orf56 (11738088_a_at) / RFU OLFML3 (11715873_a_at) / Fold change /veh OLFML3 (11715873_a_at) / RFU LOC100653217 /// NTM (11731650_a_at) / Fold change /veh LOC100653217 /// NTM (11731650_a_at) / RFU MAPK11 (11762145_a_at) / Fold change /veh MAPK11 (11762145_a_at) / RFU FIZ1 (11724087_x_at) / Fold change /veh FIZ1 (11724087_x_at) / RFU OASL (11726364_x_at) / Fold change /veh OASL (11726364_x_at) / RFU SOX15 (11748057_x_at) / Fold change /veh SOX15 (11748057_x_at) / RFU CD79A (11719716_a_at) / Fold change /veh CD79A (11719716_a_at) / RFU HIST1H1D (11736915_at) / Fold change /veh HIST1H1D (11736915_at) / RFU CASKIN2 (11723855_a_at) / Fold change /veh CASKIN2 (11723855_a_at) / RFU LOC730098 (11760151_x_at) / Fold change /veh LOC730098 (11760151_x_at) / RFU OR4N2 (11742367_at) / Fold change /veh OR4N2 (11742367_at) / RFU PRRT2 (11749266_a_at) / Fold change /veh PRRT2 (11749266_a_at) / RFU SNX32 (11753110_a_at) / Fold change /veh SNX32 (11753110_a_at) / RFU CDHR5 (11726645_a_at) / Fold change /veh CDHR5 (11726645_a_at) / RFU RCAN1 (11760418_a_at) / Fold change /veh RCAN1 (11760418_a_at) / RFU FAM167A (11723789_a_at) / Fold change /veh FAM167A (11723789_a_at) / RFU FAM26E (11764081_at) / Fold change /veh FAM26E (11764081_at) / RFU ISYNA1 (11749810_s_at) / Fold change /veh ISYNA1 (11749810_s_at) / RFU ACY1 (11761880_at) / Fold change /veh ACY1 (11761880_at) / RFU 11764098_at / Fold change /veh 11764098_at / RFU SAMD14 (11745864_x_at) / Fold change /veh SAMD14 (11745864_x_at) / RFU NPB (11741838_a_at) / Fold change /veh NPB (11741838_a_at) / RFU TMPRSS6 (11731388_a_at) / Fold change /veh TMPRSS6 (11731388_a_at) / RFU KRTAP10-2 (11738614_at) / Fold change /veh KRTAP10-2 (11738614_at) / RFU ARHGAP8 /// PRR5-ARHGAP8 (11727945_x_at) / Fold change /veh ARHGAP8 /// PRR5-ARHGAP8 (11727945_x_at) / RFU KRTAP5-7 /// NADSYN1 (11734609_at) / Fold change /veh KRTAP5-7 /// NADSYN1 (11734609_at) / RFU RASL12 (11751679_a_at) / Fold change /veh RASL12 (11751679_a_at) / RFU CDKN2B (11736163_a_at) / Fold change /veh CDKN2B (11736163_a_at) / RFU PRF1 (11729649_at) / Fold change /veh PRF1 (11729649_at) / RFU, ZNF638 /// ZNF638-IT1 / Fold change vs veh, ZNF638 /// ZNF638-IT1 / RFU, PANK3 / Fold change vs veh, PANK3 / RFU, SH3YL1 / Fold change vs veh, SH3YL1 / RFU, ZEB2 / Fold change vs veh, ZEB2 / RFU, NRIP1 / Fold change vs veh, NRIP1 / RFU, PTTG1IP / Fold change vs veh, PTTG1IP / RFU, CAPN2 / Fold change vs veh, CAPN2 / RFU, MED14 / Fold change vs veh, MED14 / RFU, SNORA58 / Fold change vs veh, SNORA58 / RFU, C1orf63 / Fold change vs veh, C1orf63 / RFU, LRRFIP1 / Fold change vs veh, LRRFIP1 / RFU, NDUFAF7 / Fold change vs veh, NDUFAF7 / RFU, SLC12A2 / Fold change vs veh, SLC12A2 / RFU, IBTK / Fold change vs veh, IBTK / RFU, ESF1 / Fold change vs veh, ESF1 / Fold change vs veh, TMEM50B / RFU, TAOK1 / Fold change vs veh, TAOK1 / RFU, ACBD3 / Fold change vs veh, ACBD3 / RFU, TMA16 / Fold change vs veh, TMA16 / RFU, RWDD3 / Fold change vs veh, RWDD3 / RFU, BCAT1 / Fold change vs veh, BCAT1 / RFU, EDEM3 / Fold change vs veh, EDEM3 / RFU, TMEM33 / Fold change vs veh, TMEM33 / RFU, WDR75 / Fold change vs veh, WDR75 / RFU, AHCTF1 / Fold change vs veh, AHCTF1 / RFU, TFRC / Fold change vs veh, TFRC / RFU, ZDHHC17 / Fold change vs veh, ZDHHC17 / RFU, NOM1 / Fold change vs veh, NOM1 / RFU, ARL8B / Fold change vs veh, ARL8B / RFU, ZBTB11 / Fold change vs veh, ZBTB11 / RFU, TAMM41 / Fold change vs veh, TAMM41 / RFU, KIAA1704 /// LOC100996395 / Fold change vs veh, KIAA1704 /// LOC100996395 / RFU, ING1 / Fold change vs veh, ING1 / RFU, TRMT61B / Fold change vs veh, TRMT61B / RFU, FUBP3 / Fold change vs veh, FUBP3 / RFU, TP53 / Fold change vs veh, TP53 / RFU, TNKS2 / Fold change vs veh, TNKS2 / RFU, ZFP14 / Fold change vs veh, ZFP14 / RFU, ACTR2 / Fold change vs veh, ACTR2 / RFU, PPP3R1 / Fold change vs veh, PPP3R1 / RFU, PIK3R1 / Fold change vs veh, PIK3R1 / RFU, HNRNPA1 / Fold change vs veh, HNRNPA1 / RFU, RNF170 / Fold change vs veh, RNF170 / RFU, ZNF28 / Fold change vs veh, ZNF28 / RFU, RNGTT / Fold change vs veh, RNGTT / RFU, OGT / Fold change vs veh, OGT / RFU, BRD1 / Fold change vs veh, BRD1 / RFU, MARS / Fold change vs veh, MARS / RFU, ZNF655 / Fold change vs veh, ZNF655 / RFU, FAHD1 / Fold change vs veh, FAHD1 / RFU, BDP1 / Fold change vs veh, BDP1 / RFU, LRRCC1 / Fold change vs veh, LRRCC1 / RFU, ARID1A / Fold change vs veh, ARID1A / RFU, ZNF146 / Fold change vs veh, ZNF146 / RFU, ZNF330 / Fold change vs veh, ZNF330 / RFU, GPN3 / Fold change vs veh, GPN3 / RFU, C9orf123 / Fold change vs veh, C9orf123 / RFU, N4BP2L2 / Fold change vs veh, N4BP2L2 / RFU, ARFIP1 / Fold change vs veh, ARFIP1 / RFU, FAM179B / Fold change vs veh, FAM179B / RFU, BCL10 / Fold change vs veh, BCL10 / RFU, UHRF1BP1L / Fold change vs veh, UHRF1BP1L / RFU, BET1 / Fold change vs veh, BET1 / RFU, CNOT2 / Fold change vs veh, CNOT2 / RFU, ZNF268 / Fold change vs veh, ZNF268 / Fold change vs veh, ZNF507 / RFU, DGCR2 / Fold change vs veh, DGCR2 / RFU, WDSUB1 / Fold change vs veh, WDSUB1 / Fold change vs veh, HSP90B1 /// MIR3652 / RFU, ADSS / Fold change vs veh, ADSS / RFU, GK / Fold change vs veh, GK / RFU, ZNF148 / Fold change vs veh, ZNF148 / RFU, TAF9 / Fold change vs veh, TAF9 / RFU, SLC1A5 / Fold change vs veh, SLC1A5 / RFU, SLMO2 / Fold change vs veh, SLMO2 / RFU, ABCC4 / Fold change vs veh, ABCC4 / RFU, LOC101060439 /// RAP1B / Fold change vs veh, LOC101060439 /// RAP1B / RFU, RFX7 / Fold change vs veh, RFX7 / RFU, GTPBP10 / Fold change vs veh, GTPBP10 / RFU, CNEP1R1 / Fold change vs veh, CNEP1R1 / RFU, BIVM-ERCC5 /// ERCC5 / Fold change vs veh, BIVM-ERCC5 /// ERCC5 / RFU, ILF3 / Fold change vs veh, ILF3 / RFU 11762660_at / Fold change /veh 11762660_at / RFU VCAN (11757783_s_at) / Fold change /veh VCAN (11757783_s_at) / RFU DDX43 (11728927_at) / Fold change /veh DDX43 (11728927_at) / RFU KRT8 (11758188_x_at) / Fold change /veh KRT8 (11758188_x_at) / RFU NKD1 (11759106_at) / Fold change /veh NKD1 (11759106_at) / RFU SRD5A1 (11742802_a_at) / Fold change /veh SRD5A1 (11742802_a_at) / RFU TPSAB1 /// TPSB2 (11721975_s_at) / Fold change /veh TPSAB1 /// TPSB2 (11721975_s_at) / RFU GSTM3 (11746129_a_at) / Fold change /veh GSTM3 (11746129_a_at) / RFU IL23R (11737362_x_at) / Fold change /veh IL23R (11737362_x_at) / RFU TMEM51 (11727254_a_at) / Fold change /veh TMEM51 (11727254_a_at) / RFU PIWIL2 (11732686_x_at) / Fold change /veh PIWIL2 (11732686_x_at) / RFU ORM1 (11744905_x_at) / Fold change /veh ORM1 (11744905_x_at) / RFU CCDC152 (11743942_at) / Fold change /veh CCDC152 (11743942_at) / RFU ECM1 (11717891_a_at) / Fold change /veh ECM1 (11717891_a_at) / RFU IL23R (11748794_a_at) / Fold change /veh IL23R (11748794_a_at) / RFU TNFAIP8L3 (11732012_x_at) / Fold change /veh TNFAIP8L3 (11732012_x_at) / RFU MBOAT4 (11741988_at) / Fold change /veh MBOAT4 (11741988_at) / RFU 11764193_at / Fold change /veh 11764193_at / RFU TMEM53 (11763286_at) / Fold change /veh TMEM53 (11763286_at) / RFU MAGEB2 (11727129_at) / Fold change /veh MAGEB2 (11727129_at) / RFU TMEM200A (11744735_a_at) / Fold change /veh TMEM200A (11744735_a_at) / RFU CCDC152 (11751479_a_at) / Fold change /veh CCDC152 (11751479_a_at) / RFU FAM211A (11726209_a_at) / Fold change /veh FAM211A (11726209_a_at) / RFU RGS16 (11746705_a_at) / Fold change /veh RGS16 (11746705_a_at) / RFU VCAN (11755009_s_at) / Fold change /veh VCAN (11755009_s_at) / RFU RHOB (11743442_s_at) / Fold change /veh RHOB (11743442_s_at) / RFU RGS16 (11720943_a_at) / Fold change /veh RGS16 (11720943_a_at) / RFU RGS16 (11720944_at) / Fold change /veh RGS16 (11720944_at) / RFU, VPS4B / Fold change vs veh, VPS4B / RFU, CREB1 / Fold change vs veh, CREB1 / RFU, DNAJC13 / Fold change vs veh, DNAJC13 / RFU, GNAQ / Fold change vs veh, GNAQ / RFU, CDK5R1 / Fold change vs veh, CDK5R1 / RFU, ZRANB3 / Fold change vs veh, ZRANB3 / RFU, CUL4A / Fold change vs veh, CUL4A / RFU, CCNY / Fold change vs veh, CCNY / RFU, UFL1 / Fold change vs veh, UFL1 / RFU, COG3 / Fold change vs veh, COG3 / RFU, DIAPH2 / Fold change vs veh, DIAPH2 / RFU, SKA2 / Fold change vs veh, SKA2 / RFU, AFF3 / Fold change vs veh, AFF3 / RFU, LMF1 / Fold change vs veh, LMF1 / RFU, IPO11 / Fold change vs veh, IPO11 / RFU, DFFB / Fold change vs veh, DFFB / RFU, FOXP1 / Fold change vs veh, FOXP1 / RFU, CARD8 / Fold change vs veh, CARD8 / RFU, STRN3 / Fold change vs veh, STRN3 / RFU, ADK / Fold change vs veh, ADK / RFU, RASSF2 / Fold change vs veh, RASSF2 / RFU, WIPF1 / Fold change vs veh, WIPF1 / RFU, LARP1B / Fold change vs veh, LARP1B / RFU, RASA1 / Fold change vs veh, RASA1 / RFU, RB1 / Fold change vs veh, RB1 / RFU, PPFIA1 / Fold change vs veh, PPFIA1 / RFU, MAT2A / Fold change vs veh, MAT2A / RFU, CCT5 / Fold change vs veh, CCT5 / RFU, WDR92 / Fold change vs veh, WDR92 / RFU, CUX1 / Fold change vs veh, CUX1 / RFU, TTC7A / Fold change vs veh, TTC7A / RFU, TMEM135 / Fold change vs veh, TMEM135 / RFU, DEPTOR / Fold change vs veh, DEPTOR / RFU, CPM / Fold change vs veh, CPM / RFU, DNAJB6 / Fold change vs veh, DNAJB6 / RFU, CACNA2D3 / Fold change vs veh, CACNA2D3 / RFU, DTX4 / Fold change vs veh, DTX4 / RFU, TFCP2 / Fold change vs veh, TFCP2 / RFU, GMCL1 /// GMCL1P1 / Fold change vs veh, GMCL1 /// GMCL1P1 / RFU, AEBP2 / Fold change vs veh, AEBP2 / RFU, SNHG1 /// SNORD22 /// SNORD25 /// SNORD26 /// SNORD27 /// SNORD28 /// SNORD29 /// SNORD31 / Fold change vs veh, SNHG1 /// SNORD22 /// SNORD25 /// SNORD26 /// SNORD27 /// SNORD28 /// SNORD29 /// SNORD31 / Fold change (Aza/veh), C12orf56 (ProbeSet 11735607_a_at) / Fold change (ACY-1035/veh), C12orf56 (ProbeSet 11735607_a_at) / Fold change (Aza/veh), FGFR1OP (ProbeSet 11751329_s_at) / Fold change (ACY-1035/veh), FGFR1OP (ProbeSet 11751329_s_at) / Fold change (Aza/veh), VPS36 (ProbeSet 11739960_a_at) / Fold change (ACY-1035/veh), VPS36 (ProbeSet 11739960_a_at) / RFU SYPL1 (11715823_x_at) / Fold change /veh SYPL1 (11715823_x_at) / RFU IGFBP7 (11715501_s_at) / Fold change /veh IGFBP7 (11715501_s_at) / RFU REEP3 (11722064_at) / Fold change /veh REEP3 (11722064_at) / RFU IGLL1 (11728026_x_at) / Fold change /veh IGLL1 (11728026_x_at): dose or concentration left out as unconfirmed
# Conditions: MV-4-11 cells, 48 hours
smiles,measurement,value
Nc1ncn([C@@H]2O[C@H](CO)[C@@H](O)[C@H]2O)c(=O)n1 [azacitidine],RFU WNT11 (11732464_a_at),6.46 RFU
